Data taken from patent US10889572B2, “Reactive oxygen species scavengers and use for treating diseases” (XW LABORATORIES INC., priority 2017, dated 2021).
Where two headings read alike, the source gives them in different places.

Columns and labels:
[1] = system: HT-1080 (fibrosarcoma) cells; assay: Primary screening by ferroptosis assay (Erastin-induced, cell viability, CellTiter-Glo); assay type: cell-based; settings: HT-1080 cells, % remaining activity, read-out: EC50, Inhibition for Ferroptosis in HT-1080 Cell
Protocol: Cell Lines and Media: HT-1080 (fibrosarcoma) cells were obtained from American Type Culture Collection. Cells were grown in EMEM media, 10% Heat-Inactivated FBS, and penicillin-streptomycin mix (Invitrogen). Cells were maintained at 37° C. and 5% CO2 in a tissue culture incubator.
Cell Viability Assay: Seed 10,000 cell/well of HT-1080 cells with 195 μL growth media in black and clear bottom 96-well plates (Cat #Corning 3904) and allow cells to adhere overnight. The next day, dilute test compound by 2-fold dilution into 12 points with medium containing 400 μM Erastin. Transfer 5 μL of compounds solution into growth medium in triplicated wells. 30 hours later, add Cell Titer-Glo® Luminescent cell viability assay reagent (Cat #, Promega G8081) to measure HT-1080 cell viability according to the manufacture protocol. Briefly, aspirate 100 μL medium, and add 50 μL CellTiter-Glo® Luminescent reagent to each well and incubated for 30 minutes at room temperature to stabilize the Luminescent signal. Seal the plates and centrifuged for 1 minute at 1,000 rpm to remove bubbles. Shake the plates for 1 minute on an orbital shaker. Read the plate to detect Luminescent signal with EnSpire Multimode Plate Reader (PerkinElmer). The remaining activity % is used to evaluate Erastin induced ferroptosis in HT-1080 cells and expressed as the following formula: % Remaining Activity−100×[(Sample−Backgroundavg)/(Vehicle−Background avg)]
Sample: Readout from the test compound
Vehicle: Readout from the vehicle sample
Background: Readout from the Erastin only treatment
Dose response curve is graphed by using the non-linear regression analysis (formula equation 201) in XLFit (Excel add-in software) for the average % remaining activity from triplicates, and the EC50 values is then calculated. In this anti-ferroptosis assay, ferrostatin-1, and XJB-5-131 are included as reference. The acceptance criteria were set based on historical result, mean±2.58*SD in logarithmic scale, meanwhile Z′>0.5.

3T3-L1 cells = assay: Apoptosis assay (Caspase-Glo 3/7, Actinomycin D induced); assay type: cell-based; settings: 100 nM Actinomycin D, 48 hours, Caspase-Glo 3/7, 2 hours pre-treatment, read-out: EC50, Inhibition for Apoptosis in 3T3-L1 Cell induced by Actinomycin D
Protocol: Cell Lines and Media. 3T3-L1 cells were obtained from American Type Culture Collection. Cells were grown in DMEM completed media, 10% FBS, and penicillin-streptomycin mix (Invitrogen). Cells were maintained at 37° C. and 5% CO2 in a tissue culture incubator.
Apoptosis Assay. […] We used this assay to screen our compounds for apoptosis inhibition. Briefly, 40 μL of 3000 3T3-L1 cells were seeded per well in 384 well plates, cells were allowed to adhere overnight. In the next day, prepare the Actinomycin D as the apoptosis inducing agent into 100 μM DMSO stock. Prepare the test compounds into 10 mM DMSO stock. Serial dilute the compound into 10 points by 3-fold dilution with DMSO. Pre-treat the 3T3-L1 cells with test compound by transfer 40 nL of stock of serial concentration in triplicate wells using acoustic fluid transfer, incubate for 2 hours. Then transfer 40 nL of 100 μM of Actinomycin D (final concentration is 100 nM) into designated wells using acoustic fluid transfer. Incubate the assay plates at 37° C., 5% CO2, 95% humidity incubator for 48 hours. For caspase assay, add 20 μL/well of Caspase-Glo>3/7 reagent (Promega) into test wells. Incubate for 30 minutes at room temperature to stabilize the luminescence signal. Read the plate with EnSpire Multimode Plate Reader (PerkinElmer). Calculate the EC50 value using formula equation 201: y−(A+((B−A)/(1+((x/C)^D)))) from the XLFit (Excel add-in software), where
A: Average mean of vehicle samples
B: Average mean of cells treated with 100 nM AcD
Z′ factor was used to describe the screening assay perfonuance. The Z′ factor value was >0.5 in all the test plates which indicated the assay was qualified and the IC50 value was reliable for all tested compounds.

| Compound | EC50 ([1]; 30 hours) | EC50 (3T3-L1 cells; Mus musculus, 3T3-L1) | EC50 ([1]; Homo sapiens, HT-1080, 30 h) | EC50 ([1]; Homo sapiens, 30 hours) | EC50 (3T3-L1 cells) |
| --- | --- | --- | --- | --- | --- |
| CC(C)C[C@@H](/C=C/[C@H](Cc1ccccc1)C(=O)N1CCC[C@H]1C(=O)N[C@@H](CCCNC(=O)OCc1ccccc1)C(=O)NC1CC(C)(C)N(O)C(C)(C)C1)NC(=O)OC(C)(C)C [Example IX, Benzyl N-[(4S)—4-{[(2S)-1-[(2S,3E,5S)-2-benzyl-5-{[(tert-butoxy)carbonyl]amino}-7-methyloct-3-enoyl]pyrrolidin-2-yl]formamido}-4-[(1-hydroxy-2,2,6,6-tetramethylpiperidin-4-yl)carbamoyl]butyl]carbamate] | 261 nM | 1370 nM |  |  |  |
| CC(C)C[C@@H](/C=C/[C@H](Cc1ccccc1)C(=O)N1CCC[C@H]1C(=O)N[C@@H](CCCNC(=O)OC1CC(C)(C)N(O)C(C)(C)C1)C(=O)OC(C)C)NC(=O)OC(C)(C)C [Example XXIX, Propan-2-yl (2S)—2-{[(2S)-1-[(2S,3E,5S)-2-benzyl-5-{[(tert-butoxy)carbonyl]amino}-7-methyloct-3-enoyl]pyrrolidin-2-yl]formamido}-5-({[(1-oxyl-2,2,6,6-tetramethylpiperidin-4-yl)oxy]carbonyl}amino)pentanoate] |  | 4320 nM | 73 nM |  |  |
| CC(C)C[C@@H](/C=C/[C@H](Cc1ccccc1)C(=O)N1CCC[C@H]1C(=O)N[C@@H](C(=O)N[C@@H](CCCNC(=O)OCc1ccccc1)C(=O)NC1CC(C)(C)N(O)C(C)(C)C1)C(C)C)NC(=O)OCC1CC1 [Example X, Cyclopropylmethyl N-[(4S,5E,7S)-7-benzyl-8-[(2S)—2-{[(1R)—1-{[(1S)—4-{[(benzyloxy)carbonyl]amino}-1-[(1-hydroxy-2,2,6,6-tetramethylpiperidin-4-yl)carbamoyl]butyl]carbamoyl}-2-methylpropyl]carbamoyl}pyrrolidin-1-yl]-2-methyl-8-oxooct-5-en-4-yl]carbamate] |  | 1380 nM |  | 285 nM |  |
| CC(C)C[C@@H](/C=C/[C@H](Cc1ccccc1)C(=O)N1CCC[C@H]1C(=O)N[C@@H](CCCNC(=O)OC1CC(C)(C)N(O)C(C)(C)C1)C(=O)NC(C)C)NC(=O)OC(C)(C)C [Example XXXXIV, tert-Butyl N-[(4S,5E,7S)-7-benzyl-8-[(2S)—2-{[(1S)-4-({[(1-oxyl-2,2,6,6-tetramethylpiperidin-4-yl)oxy]carbonyl}amino)-1-[(propan-2-yl)carbamoyl]butyl]carbamoyl}pyrrolidin-1-yl]-2-methyl-8-oxooct-5-en-4-yl]carbamate] |  | 628 nM | 140 nM |  |  |
| CC(C)C[C@@H](/C=C/[C@H](Cc1ccccc1)C(=O)N1CCC[C@H]1C(=O)N[C@@H](C(=O)N[C@@H](CCCNC(=O)OCc1ccccc1)C(=O)NC1CC(C)(C)N(O)C(C)(C)C1)C(C)C)NC(=O)OC(C)(C)C [Example IV] |  | 1270 nM |  | 564 nM |  |
| CC(C)C[C@@H](/C=C/[C@H](Cc1ccccc1)C(=O)N1CCC[C@H]1C(=O)N[C@@H](CCCNC(=O)OCc1ccccc1)C(=O)NC1CC(C)(C)N(O)C(C)(C)C1)NC(=O)OC(C)(C)C [Example I, Benzyl N-[(4S)—4-{[(2S)-1-[(2S,3E,5S)-2-Benzyl-5-{[(Tert-Butoxy)Carbonyl]Amino}-7-Methyloct-3-Enoyl]Pyrrolidin-2-Yl]Formamido}-4-[(1-Oxyl-2,2,6,6-Tetramethylpiperidin-4-Yl)Carbamoyl]Butyl]Carbamate] | 260 nM |  |  |  | 1580 nM |
| CC(C)C[C@@H](/C=C/[C@H](Cc1ccccc1)C(=O)N1CCC[C@H]1C(=O)NC(CCCNC(=O)OCc1ccccc1)C(=O)NC1CC(C)(C)N(O)C(C)(C)C1)NC(=O)OC(C)(C)C (stereo in doubt) [Example V, Benzyl N-[(4R)—4-{[(2S)-1-[(2S,3E,5S)-2-benzyl-5-{[(tert-butoxy)carbonyl]amino}-7-methyloct-3-enoyl]pyrrolidin-2-yl]formamido}-4-[(1-hydroxy-2,2,6,6-tetramethylpiperidin-4-yl)carbamoyl]butyl]carbamate] |  | 1310 nM | 141 nM |  |  |
| CC(C)C[C@@H](/C=C/[C@H](Cc1ccccc1)C(=O)N1CCC[C@H]1C(=O)N[C@@H](C(=O)NC1CC(C)(C)N([O])C(C)(C)C1)C(C)C)NC(=O)OC(C)(C)C [Example II, tert-Butyl ((4S,7S,E)-7-benzyl-8-((S)-2-(((R)-1-((1-oxyl-2,2,6,6-tetramethylpiperidin-4-yl)amino)-3-methyl-1-oxobutan-2-yl)carbamoyl)pyrrolidin-1-yl)-2-methyl-8-oxooct-5-en-4-yl)carbamate] |  | 3040 nM |  | 289 nM |  |
| CC(C)CC(C=CC(Cc1ccccc1)C(=O)N1CCCC1C(=O)NC(CCCNC(=O)OC1CC(C)(C)N([O])C(C)(C)C1)C(N)=O)NC(=O)OC(C)(C)C [Example XXVIII, tert-Butyl N-[(4S,5E,7S)-7-benzyl-8-[(2S)—2-{[(1S)-1-carbamoyl-4-({[(1-oxyl-2,2,6,6-tetramethylpiperidin-4-yl)oxy]carbonyl}amino-)butyl]carbamoyl}pyrrolidin-1-yl]-2-methyl-8-oxooct-5-en-4-yl]carbamate] | 251 nM |  |  |  | 3930 nM |
| CC(C)C[C@@H](/C=C/[C@H](Cc1ccccc1)C(=O)N1CCC[C@@H]1C(=O)N[C@H](C(=O)N[C@@H](CCCNC(=O)OCc1ccccc1)C(=O)NC1CC(C)(C)N(O)C(C)(C)C1)C(C)C)NC(=O)OC(C)(C)C [Example VII, Benzyl N-[(4S)-4-[(2S)—2-{[(2R)-1-[(2S,3E,5S)-2-benzyl-5-{[(tert-butoxy)carbonyl]amino}-7-methyloct-3-enoyl]pyrrolidin-2-yl]formamido}-3-methylbutanamido]-4-[(1-hydroxy-2,2,6,6-tetramethylpiperidin-4-yl)carbamoyl]butyl]carbamate] |  | 4640 nM |  | 342 nM |  |
| 1-Oxyl-2,2,6,6-tetramethylpiperidin-4-yl-N-[(4S)—4-{[(2S)-1-[(2S,3E,5S)-2-benzyl-5-{[(tert- butoxy)carbonyl]amino}-7-methyloct-3-enoyl]pyrrolidin-2-yl]formamido}-4-[(1-oxyl-2,2,6,6-tetramethylpiperidin-4-yl)carbamoyl]butyl]carbamate [Example XXXXII] | 274 nM |  |  |  | 708 nM |
| COC(=O)[C@H](CCCNC(=O)OC1CC(C)(C)N(O)C(C)(C)C1)NC(=O)[C@@H](NC(=O)[C@@H]1CCCN1C(=O)[C@H](/C=C/[C@H](CC(C)C)NC(=O)OC(C)(C)C)Cc1ccccc1)C(C)C [Example XXXVIII, (S)—Methyl 2-((S)-2-((S)-1-((2S,5S,E)-2-benzyl-5-((tert-butoxycarbonyl)amino)-7-methyloct-3-enoyl)pyrrolidine-2-carboxamido)-3-methylbutanamido)—5-((((1-oxyl-2,2,6,6-tetramethylpiperidin-4-yl)oxy)carbonyl)amino)pentanoate] |  | 2650 nM | 76 nM |  |  |
| CC(C)C[C@@H](/C=C/[C@H](Cc1ccccc1)C(=O)N1CCC[C@H]1C(=O)N[C@@H](CCCCNC(=O)OCc1ccccc1)C(=O)NC1CC(C)(C)N(O)C(C)(C)C1)NC(=O)OC(C)(C)C [Example XXVI, Benzyl N—[(5 S)—5-{[(2S)-1-[(2S,3E,5S)-2-benzyl-5-{[(tert-butoxy)carbonyl]amino}-7-methyloct-3-enoyl]pyrrolidin-2-yl]formamido}-5-[(1-oxyl-2,2,6,6-tetramethylpiperidin-4-yl)carbamoyl]pentyl]carbamate] |  | 683 nM | 140 nM |  |  |
